In experiment [1] the target is T1, human cloned orexin-1 receptor (Homo sapiens, UniProt O43613).
T1 construct: expressed in transfected cells
T1 sequence (O43613 1-425): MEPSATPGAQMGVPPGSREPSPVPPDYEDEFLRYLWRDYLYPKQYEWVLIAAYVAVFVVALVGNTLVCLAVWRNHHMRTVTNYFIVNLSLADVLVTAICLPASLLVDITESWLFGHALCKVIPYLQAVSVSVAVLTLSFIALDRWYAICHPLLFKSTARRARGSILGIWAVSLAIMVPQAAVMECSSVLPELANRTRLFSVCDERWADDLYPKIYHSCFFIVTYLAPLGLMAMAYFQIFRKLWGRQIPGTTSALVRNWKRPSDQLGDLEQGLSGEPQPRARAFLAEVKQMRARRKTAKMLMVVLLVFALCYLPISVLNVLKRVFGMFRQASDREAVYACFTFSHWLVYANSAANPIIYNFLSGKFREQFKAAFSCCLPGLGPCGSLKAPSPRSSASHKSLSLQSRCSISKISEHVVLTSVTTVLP
In words: Antagonist affinity at human Orexin-1 receptor using FLIPR ([Ca2+]i). The following applies: CHO-hOX1 cells, EC80 hOrexinA stimulus, functional pKi from IC50 by modified Cheng-Prusoff correction; read-out: fpKi value at the human cloned orexin-1 receptor (converted). It counts as cell-based. The protocol: (§1) Determination of Antagonist Affinity at Human Orexin-1 and 2 Receptors Using FLIPR
(§2) Adherent Chinese Hamster Ovary (CHO) cells, stably expressing the recombinant human Orexin-1 (hOX1) or human Orexin-2 receptors (hOX2), were maintained in culture in Alpha Minimum Essential Medium (Gibco/Invitrogen, cat. no.; 22571-020), supplemented with 10% decomplemented foetal bovine serum (Life Technologies, cat. no. 10106-078) and 400 ug/mL Geneticin G418 (Calbiochem, cat. no. 345810). Cells were grown as monolayers under 95%:5% air:CO2 at 37° C. and passaged every 3-4 days. The highest passage used was 25. […]
(§3) An agonist stimulus 384-well plate containing 50 μL/well of human orexin A (hOrexinA) was prepared just before using by diluting with buffer a stock plate: final concentration is equivalent to the calculated EC80 for hOrexinA. […]
(§4) The loaded cells were then incubated for 10 min at 37° C. with test compound. The plates were then placed into a FLIPR™ (Molecular Devices, UK) to monitor cell fluorescence (λex=488 nm, λEM=540 nm) (Sullivan E, Tucker E M, Dale I L. Measurement of [Ca^2+]i using the fluometric imaging plate reader (FLIPR). In: Lambert D G (ed.), Calcium Signaling Protocols. New Jersey: Humana Press, 1999, 125-136). A baseline fluorescence reading was taken over a 5 to 10 second period, and then 10 μL of EC80 hOrexinA solution was added. […]

Experiment [2] addresses T2, human cloned orexin-2 receptor (Homo sapiens, UniProt O43614).
T2 construct: expressed in transfected cells
T2 sequence (O43614 1-444): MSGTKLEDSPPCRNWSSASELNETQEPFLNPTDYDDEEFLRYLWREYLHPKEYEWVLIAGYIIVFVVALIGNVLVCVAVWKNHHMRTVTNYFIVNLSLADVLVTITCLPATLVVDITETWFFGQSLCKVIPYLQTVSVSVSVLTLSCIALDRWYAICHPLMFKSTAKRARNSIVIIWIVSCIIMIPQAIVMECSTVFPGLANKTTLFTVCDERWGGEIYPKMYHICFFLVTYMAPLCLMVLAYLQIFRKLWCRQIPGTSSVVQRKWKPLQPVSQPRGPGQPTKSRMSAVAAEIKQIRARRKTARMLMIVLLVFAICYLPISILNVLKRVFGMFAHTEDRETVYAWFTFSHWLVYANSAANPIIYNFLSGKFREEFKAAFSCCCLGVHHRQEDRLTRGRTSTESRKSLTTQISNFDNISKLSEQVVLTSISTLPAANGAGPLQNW
In words: Antagonist affinity at human Orexin-2 receptor using FLIPR ([Ca2+]i). It counts as cell-based. Particulars: CHO-hOX2 cells, EC80 hOrexinA stimulus, functional pKi from IC50 by modified Cheng-Prusoff correction; read-out: fpKi value at the human cloned orexin-2 receptor (converted). The protocol: as §1, §2, §3, §4

From patent US8129384B2, “Imidazo[1,2-a]pyrazines as orexin receptor antagonists” (Glaxo Group Limited, priority 2008, dated 2012) come the findings set out here.

Counter-ions that a name gives are not always drawn.

On to `Cc1cn2cc(C[C@@H]3CCCCN3C(=O)c3nc(C)sc3-c3ccccc3)nc2c(C)n1` [Example 1, 6,8-dimethyl-2-({(2S)-1-[(2-methyl-5-phenyl-1,3-thiazol-4-yl)carbonyl]-2-piperidinyl}methyl)imidazo[1,2-a]pyrazine (HCl salt)], for which the Ki in experiment [1] is 5.01 nM; in experiment [2], 6.31 nM.
